The data set deals with NK92-MI cells. In words: Influence of azido sugar on NK cell activity (CCK8, OD450). It counts as cell-based. The following applies: final concentration 50 μM; 24 hours and 48 hours; vs 0.1% DMSO control. As for the experimental part:
This embodiment describes validation of influences of the added non-natural sugars on cell activities. The specific method is as follows: non-natural sugars were absorbed by cells; the cells were cultured for a period of time; then, OD450 was determined using a cell counting kit 8 (CCK8) (Beyotime), and a difference in cell activities of a group added with sugars and a group without sugars was analyzed.
The specific process is as follows: 1×10^5 pieces of NK cells were laid in a 96-pore plates; 0.1% DMSO was added into a control group, while Ac4ManNAz with a final concentration of 50 μM (the mount of the DMSO was equivalent to 0.1%) was added into an experimental group; then, the cells were cultured in an incubator at 37° C., and subsequently added with the CCK8 after 24 hours and 48 hours respectively; and after 2-hour incubation, OD450 was detected using a microplate reader.

On to `CC(=O)OC[C@H]1OC(OC(C)=O)[C@@H](NC(=O)CN=[N+]=[N-])[C@@H](OC(C)=O)[C@@H]1OC(C)=O` (stereo partly shown) [Ac4ManNAz, N-azidoacetylmannosamine-tetraacylated], for which the “influence on cell activities (OD450, CCK8)” value is given as “not toxic to cells, but slightly promoted growth”.

The values above are taken from patent publication US12343404B2, “Ligand-targeted cell conjugate (LTCC)-based anti-tumor immune cell” (priority 2020, dated 2025).
